Tested on: kynurenine production in HeLa cells
Experiment: Inhibition of kynurenine production in HeLa cells
Assay type: cell-based, human
Conditions: HeLa cells, human IFN-γ 50 ng/mL, 48 h, kynurenine read at 480 nm; read-out: IC50
Method: The effect of compounds described herein on the inhibition of kynurenine production in HeLa cells (derived from human cervical cancer) was determined. HeLa cells were seeded into a 96-well culture plate at a density of 5×10^3 per well in RPMI1640/phenol red free media (from GIBCO) with 2 mM L-glutamine and 10% fetal bovine serum (FBS, from GIBCO) and grown overnight in a 37° C. incubator with 5% CO2. Twenty-four hours later, human IFN-γ (from GIBCO) (final concentration 50 ng/mL) and test compound solutions (serially diluted to different wells) were added to each well with a final volume of 200 uL per well. Forty-eight hours after incubation with compounds, 140 uL supernatant was taken from each well and was transferred to a new 96-well plate. Ten microliters of 6.1 N trichloroacetic acid were added into each well, mixed and incubated at 50° C. for 30 minutes. The reaction mixture was then centrifuged for 10 minutes at 2500 rpm and 100 uL of the supernatant per well was transferred to another 96 well plate and mixed with 100 uL of 2% (w/v) p-dimethylaminobenzaldehyde in acetic acid. The yellow color derived from kynurenine was measured at 480 nm using a SPECTRAmax i3 reader. Each compound concentration was done in triplicates and compound IC50 value was calculated using nonlinear regression using Graphpad Prism 5.0.
The inhibitory activity of representative compounds described herein, compared with another IDO inhibitor, such as INCB-24360, Controls 1 and 2 are shown in Table 2.

SMILES | IC50 [nM]
CCC(C(=O)O)c1ccc(N(CC(C)C)CC(C)C)c(NC(=O)Nc2cc(C)no2)c1 (single isomer, unassigned) [Compound 59A] | 12.7
CCC(C(=O)O)c1ccc(N(CC(C)C)CC(C)C)c(NC(=O)Nc2cc(C)no2)c1 (single isomer, unassigned) [Compound 59B] | 0.1
CCC(C(=O)O)c1ccc(N(CC(C)C)CC(C)C)c(Nc2ccc(S(C)(=O)=O)cc2)c1 (single isomer, unassigned) [Compound 60A] | 33
CCC(C(=O)O)c1ccc(N(CC(C)C)CC(C)C)c(Nc2ccc(S(C)(=O)=O)cc2)c1 (single isomer, unassigned) [Compound 60B] | 2.8
CCC(C(=O)O)c1ccc(N(CC(C)C)C2CCCCC2)c(NC(=O)Nc2ccc(F)cc2F)c1 (single isomer, unassigned) [Compound 62A] | 1.4
CCC(C(=O)O)c1ccc(N(CC(C)C)C2CCCCC2)c(NC(=O)Nc2ccc(F)cc2F)c1 (single isomer, unassigned) [Compound 62B] | 0.2
CCC(C(=O)O)c1ccc(N(CC(C)C)C2CCCCC2)c(NC(=O)Nc2cncnc2)c1 (single isomer, unassigned) [Compound 64A] | 4.2
CCC(C(=O)O)c1ccc(N(CC(C)C)C2CCCCC2)c(NC(=O)Nc2cncnc2)c1 (single isomer, unassigned) [Compound 64B] | 0.2
CCC(C(=O)O)c1ccc(N(CC(C)C)C2CCOCC2)c(NC(=O)Nc2ccc(F)cc2F)c1 (single isomer, unassigned) [Compound 65A] | 0.8
CCC(C(=O)O)c1ccc(N(CC(C)C)C2CCOCC2)c(NC(=O)Nc2ccc(F)cc2F)c1 (single isomer, unassigned) [Compound 65B] | 12
CCC(C(=O)O)c1ccc(N(CC(C)C)C2CCOCC2)c(Nc2ccc3c(c2)OC(F)(F)O3)c1 (single isomer, unassigned) [Compound 71A] | 0.3
CCC(C(=O)O)c1ccc(N(CC(C)C)C2CCOCC2)c(Nc2ccc3c(c2)OC(F)(F)O3)c1 (single isomer, unassigned) [Compound 71B] | 0.9
CC(C)CN(CC(C)(C)O)c1ccc(C2(C(=O)O)CCC2)cc1NC(=O)Nc1ccc(F)cc1F [Compound 23] | 61.5

Same assay, conditions: Homo sapiens, HeLa, 48 h

SMILES | IC50 [nM]
CC(C)CN(c1ccc(C2(C(=O)O)CCC2)cc1NC(=O)Nc1ccc(F)cc1F)C1CCN(C)CC1 [Compound 28] | > 316

Same assay, conditions: Homo sapiens, HeLa, 48 h, HeLa cells, human IFN-γ 50 ng/mL, kynurenine read at 480 nm, read-out: IC50

SMILES | IC50 [nM]
CC(C)CN(CC(C)C)c1ccc(CC(=O)O)cc1NC(=O)Nc1ccc(F)cc1F [Compound 1, 2-[4-[bis(2-methylpropyl)amino]-3-[[(2,4-difluorophenyl)carbamoyl]amino]phenyl]acetic acid] | 130
CC(C)CN(CC(C)C)c1ccc(C(C)C(=O)O)cc1NC(=O)Nc1ccc(F)cc1F (stereo not shown) [Compound 2] | 9.1
CC(C)CN(CC(C)C)c1ccc(C(C)(C)C(=O)O)cc1NC(=O)Nc1ccc(F)cc1F [Compound 4] | 14.9
CC(C)CN(CC(C)C)c1c(F)cc(Cc2nnn[nH]2)cc1NC(=O)Nc1ccc(F)cc1F [Compound 6] | 8.5
CC(C)CN(CC(C)C)c1ccc(C2(C(=O)O)CC2)cc1NC(=O)Nc1ccc(F)cc1F [Compound 7, 1-[4-[bis(2-methylpropyl)amino]-3-[[(2,4-difluorophenyl)carbamoyl]amino]phenyl]cyclopropane-1-carboxylic acid] | 6.3
CC(C)CN(CC(C)C)c1ccc(C2(C(=O)O)CCOCC2)cc1NC(=O)Nc1ccc(F)cc1F [Compound 8, 4-[4-[bis(2-methylpropyl)amino]-3-[[(2,4-difluorophenyl)carbamoyl]amino]phenyl]oxane-4-carboxylic acid] | 47
CC(C)CN(CC(C)C)c1ccc(C2(c3nnn[nH]3)CCCC2)cc1NC(=O)Nc1ccc(F)cc1F [Compound 10, 3-[2-[bis(2-methylpropyl)amino]-5-[1-(1H-1,2,3,4-tetrazol-5-yl)cyclopentyl]phenyl]-1-(2,4-difluorophenyl)urea] | 0.9
CC(C)CN(c1ccc(C2(C(=O)O)CCCC2)cc1NC(=O)Nc1ccc(F)cc1F)C1CCCCC1 [Compound 11] | 0.9
CC(C)CN(c1ccc(C2(C(=O)O)CCCC2)cc1NC(=O)Nc1ccc(F)cc1F)C1CCC(F)(F)CC1 [Compound 12] | 0.5
O=C(Nc1ccc(F)cc1F)Nc1cc(C2(C(=O)O)CCCC2)ccc1N(CCC(F)(F)F)Cc1ccc(OC(F)(F)F)cc1 [Compound 13] | 0.6
Cc1ccc(NC(=O)Nc2cc(C3(C(=O)O)CCCC3)ccc2N(CCC(F)(F)F)Cc2ccc(OC(F)(F)F)cc2)cc1 [Compound 14] | 0.5
Cc1cc(NC(=O)Nc2cc(C3(C(=O)O)CCCC3)ccc2N(CC(C)C)C2CCOCC2)on1 [Compound 15] | 1.4
Cc1cc(NC(=O)Nc2cc(C3(C(=O)O)CCC3)ccc2N(CC(C)C)CC(C)C)on1 [Compound 17] | 0.8
CC(C)CN(CC(C)C)c1ccc(C2(C(=O)O)CCC2)cc1NC(=O)Nc1cncnc1 [Compound 18] | 6.6
CC(C)CN(CC(C)C)c1ccc(C2(c3nnn[nH]3)CCC2)cc1NC(=O)Nc1ccc(F)cc1F [Compound 19] | 1
CCN(c1ccc(C2(C(=O)O)CCC2)cc1NC(=O)Nc1ccc(F)cc1F)C1CCCCC1 [Compound 20] | 0.5

SMILES | IC50 [nM]
CC(C)CN(c1ccc(C2(C(=O)O)CCC2)cc1NC(=O)Nc1ccc(F)cc1F)C1CCCCC1 [Compound 21] | 0.6
COCCN(c1ccc(C2(C(=O)O)CCC2)cc1NC(=O)Nc1ccc(F)cc1F)C1CCCCC1 [Compound 22] | 2.1
CCN(c1ccc(C2(C(=O)O)CCC2)cc1NC(=O)Nc1ccc(F)cc1F)C1CCOCC1 [Compound 24] | 2.2
Cc1cc(NC(=O)Nc2cc(C3(C(=O)O)CCC3)ccc2N(CC(C)C)C2CCOCC2)on1 [Compound 27] | 5.7
CC(C)CN(CC(C)C)c1ccc(C2(C(=O)O)CC(F)(F)C2)cc1NC(=O)Nc1ccc(F)cc1F [Compound 29] | 4
CC(C)CN(CC(C)C)c1ccc(C2(c3nnn[nH]3)CC(F)(F)C2)cc1NC(=O)Nc1ccc(F)cc1F [Compound 30] | 1
CC(C)CN(CC(C)C)c1ccc(OCC(=O)O)cc1NC(=O)Nc1ccc(F)cc1F [Compound 31] | 11.8
CC(C)CN(CC(C)C)c1ccc(OC(C)(C)C(=O)O)cc1NC(=O)Nc1ccc(F)cc1F [Compound 32] | 0.8
CC(C)CN(CC(C)C)c1ccc(OC(C)(C)C(=O)O)cc1NC(=O)Nc1cncnc1 [Compound 33] | 48
Cc1cc(NC(=O)Nc2cc(OC(C)(C)C(=O)O)ccc2N(CC(C)C)CC(C)C)on1 [Compound 34] | 7.7
CC(C)CN(c1ccc(OC(C)(C)C(=O)O)cc1NC(=O)Nc1ccc(F)cc1F)C1CCCCC1 [Compound 35] | 1.9
CC(C)CN(CC(C)C)c1ccc(SCC(=O)O)cc1NC(=O)Nc1ccc(F)cc1F [Compound 36] | 2.8
CC(C)CN(CC(C)C)c1ccc(SC(C)(C)C(=O)O)cc1NC(=O)Nc1ccc(F)cc1F [Compound 37] | 19.9
CC(C)CN(c1ccc(SC(C)(C)C(=O)O)cc1NC(=O)Nc1ccc(F)cc1F)C1CCCCC1 [Compound 41] | 6.4
CC(C)CN(c1ccc(SC(C)(C)C(=O)O)cc1NC(=O)Nc1ccc(F)cc1F)C1CCOCC1 [Compound 43] | 134
COCCN(c1ccc(SC(C)(C)C(=O)O)cc1NC(=O)Nc1ccc(F)cc1F)C1CCCCC1 [Compound 45] | 78

— patent US11969425B2, “Inhibitor of indoleamine-2,3-dioxygenase (IDO)” (InventisBio LLC, priority 2016, dated 2024)
